Data from patent publication US20240189490A1, “ANTIMICROBIAL ELUTING AIRWAY DEVICES” (priority 2021, published 2024).
No end group written: not given here.

Columns and labels:
[1] = tested on: patient derived laryngotracheal fibroblasts
Procedure: Peptide/PLGA coated tubes and controls were first submerged in Fluorobrite DMEM supplemented with 10% FBS, 2% Anti-Anti, 1% MEM NEAA, and incubated for 24 hours at 37° ° C. while shaking at 100 rpm to achieve release. Simultaneously, laryngotracheal fibroblasts were seeded at 7,000 cells/well in 48 well plates and allowed to adhere overnight in a culture atmosphere at 37° C., 95% relative humidity, and 5% CO2. Cell media was replaced with appropriate tube releasate and incubated for 24 hours in the culture atmosphere. Invitrogen AlamarBlue HS Cell Viability Reagent (ThermoFisher Scientific) was used to quantify viability.

[2] = tested on: Staphylococcus epidermidis; experiment: Crystal violet biofilm assay on ET tubes; assay type: cell-based; conditions: 24 hours, 1×MIC/PLGA vs uncoated, 0.5×MIC/PLGA, free peptide vs 1×MIC/PLGA p<0.0001
Procedure: (§1) Bacteria Culture. Staphylococcus epidermidis (Winslow and Winslow) Evans (ATCC 13990) was cultured in nutrient broth aerobically at 37° C. Streptococcus pneumoniae (Klein) Chester (NCTC 7465; ATCC 33400) was cultured in Brain Heart Infusion Broth and plated on Trypticase soy agar with 5% defibrinated sheep blood (Colorado Serum Co.) aerobically (5% CO2) at 37° C.
(§2) Antibacterial Activity Assay.

[3] = Release of loaded protein or peptide from coated ET tubes in PBS; assay type: physicochemical
Procedure: Release Quantification. Release of loaded protein or peptide from ET tubes was achieved from quartered tube segments in PBS at 37° C. while shaking at 100 rpm. FITC-BSA elution and PLGA degradation samples were obtained by completely removing the supernatant and adding fresh PBS to each well. […] PLGA degradation was quantified via EnzyFluo L-Lactate Assay Kit (Bioassay Systems). Peptide release was quantified via Pierce Quantitative Fluorometric Peptide Assay (Thermo Scientific).

[4] = tested on: Staphylococcus epidermidis; experiment: Adherent bacterial viability on ET tubes (colony counts); assay type: cell-based; conditions: 24 hours, 1×MIC/PLGA vs uncoated, 0.5×MIC/PLGA p<0.0001, free peptide vs 1×MIC/PLGA p=0.0015
Procedure: as §1, §2

[5] = tested on: S. epidermidis; experiment: Minimum inhibitory concentration (MIC) of Lasio; assay type: cell-based, Staphylococcus epidermidis; design: unit not given here; conditions: data not shown
Procedure: as §1, §2

| Substance | cytotoxicity toward human patient-derived laryngotracheal fibroblasts [1] | adherent bacterial populations (crystal violet biofilm assay) [2] | linear release ([3]; from PLGA coated ET tubes, PBS at 37° C. shaking at 100 rpm, after initial burst release) | viability of adherent bacteria [4] | minimum inhibitory concentration [5] | viability | linear release rate ([3]; mouse sized tube loaded with 17.04 μg peptide, over 9 days) | encapsulated peptide released ([3]; mouse sized tube, by day 9) |
| --- | --- | --- | --- | --- | --- | --- | --- | --- |
| VNWKKILGKIIKVVK-NH2 (C-terminus assumed) [Lasio, Lasioglossin-III] | not cytotoxic | significant reduction in adherent bacteria | 0.28 µg/day | inhibited the viability of adherent bacteria | 1.25 | 62.3% |  |  |
| A4K14-citropin 1.1 |  |  |  |  |  |  | 0.397 µg/day | ~80% |
